The target of experiment [1] is Protein kinase C alpha type (Homo sapiens, UniProt P17252).
Experiment [2] has as its target Protein kinase C delta type (Homo sapiens, UniProt Q05655).

Where “and” joins values, the source holds several entries; their conditions need not be identical. Equal entries are not always repeated.

Sequence of Protein kinase C delta type (Q05655 whole entry): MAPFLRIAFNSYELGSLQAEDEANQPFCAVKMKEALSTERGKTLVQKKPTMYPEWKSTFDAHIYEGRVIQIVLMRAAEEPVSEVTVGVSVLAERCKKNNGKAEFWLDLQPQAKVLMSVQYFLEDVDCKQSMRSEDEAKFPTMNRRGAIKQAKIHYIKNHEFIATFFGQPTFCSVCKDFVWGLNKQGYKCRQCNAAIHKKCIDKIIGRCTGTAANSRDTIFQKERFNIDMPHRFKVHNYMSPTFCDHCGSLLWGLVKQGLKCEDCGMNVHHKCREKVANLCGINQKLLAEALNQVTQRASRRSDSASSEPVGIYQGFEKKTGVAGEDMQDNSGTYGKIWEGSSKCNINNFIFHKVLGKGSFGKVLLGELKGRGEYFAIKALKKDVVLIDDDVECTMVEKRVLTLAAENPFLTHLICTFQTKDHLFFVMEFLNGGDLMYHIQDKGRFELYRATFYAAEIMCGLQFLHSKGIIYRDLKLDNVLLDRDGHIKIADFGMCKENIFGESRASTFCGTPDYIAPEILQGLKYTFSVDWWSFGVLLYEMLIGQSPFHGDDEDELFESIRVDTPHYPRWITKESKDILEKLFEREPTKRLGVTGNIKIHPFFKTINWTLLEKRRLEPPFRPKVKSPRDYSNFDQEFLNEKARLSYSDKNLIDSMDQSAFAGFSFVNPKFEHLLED

For the molecule `CC(C)C1C(=O)NC(CO)Cc2c[nH]c3cccc(c23)N1C` (stereo not drawn) [(-)-Indolactam V (low PS)], the Ki is 12.6 nM in experiment [1]; 8.16 nM and 43.1 nM in experiment [2].

`CCC(C)(C/C=C1/CC(CO)(COC(=O)CC(C)(CC)C(C)C)OC1=O)C(C)C` (stereo not drawn) [B8-DL-B8 (low PS)]: the Ki in experiment [1] was 2.9 nM and 3.57 nM; in experiment [2], 11.6 nM and 10 nM.

For `CCCCCCCCc1ccc2c3c(c[nH]c13)CC(CO)NC(=O)C(C(C)C)N2C` (configuration not stated) [CAS_159320], the results for the Ki in experiment [1] and in experiment [2] were 0.53 nM and 0.77 nM, respectively.

On to `C=C(C)C12OC3(c4ccccc4)OC1C1C4OC4(CO)C(O)C4(O)C(=O)C(C)=CC4C1(O3)C(C)C2OC(=O)C=CC=Cc1ccccc1` (configuration not stated) [NSC_4179], for which the Ki came to 0.27 nM in experiment [1] and 0.55 nM in experiment [2].

In the case of `CC1=CC2C(O)(CC(CO)=CC3C4C(C)(C)C4(OC(=O)Cc4ccccc4)CC(C)C32O)C1=O` (configuration not stated) [NSC_105100], the figures for the Ki in experiment [1] and in experiment [2] were 0.14 nM and 0.56 nM, respectively.

For `C=C(C)C12OC3(c4ccccc4)OC1C1C4OC4(CO)C(O)C4(O)C(=O)C(C)=CC4C1(O3)C(C)C2OC(=O)C=Cc1ccccc1` (configuration not stated) [NSC_6437389], the Ki in experiment [1] is 0.29 nM and 0.22 nM; in experiment [2], 1.31 nM and 10.7 nM.

The Ki is a dissociation constant, usually derived from enzyme kinetics or from competition with a known ligand. Read a low Ki as tighter binding.

The values above are taken from BindingDB's records for doi:10.1124/mol.64.6.1342 (University of Pittsburgh, 2003).
